Test results published in patent US11446298B2, “Pyrimidine derivatives” (Idorsia Pharmaceuticals Ltd, priority 2017, dated 2022).
pIC50: −log10 of the molar value.

Columns and labels:
Assay type in all cases: cell-based
EP2 = molecular target: T1, EP2 (Homo sapiens, UniProt P43116); assay: hEP2 cAMP Assay (SF295 glioblastoma cells, HTRF cAMP, PGE2 75 nM); conditions: antagonistic activity, PGE2 75 nM (EC80)
T1 construct: SF295 glioblastoma cells express high endogenous EP2 and no EP4; host or cells: SF295 glioblastoma cells
T1 sequence (P43116 whole entry): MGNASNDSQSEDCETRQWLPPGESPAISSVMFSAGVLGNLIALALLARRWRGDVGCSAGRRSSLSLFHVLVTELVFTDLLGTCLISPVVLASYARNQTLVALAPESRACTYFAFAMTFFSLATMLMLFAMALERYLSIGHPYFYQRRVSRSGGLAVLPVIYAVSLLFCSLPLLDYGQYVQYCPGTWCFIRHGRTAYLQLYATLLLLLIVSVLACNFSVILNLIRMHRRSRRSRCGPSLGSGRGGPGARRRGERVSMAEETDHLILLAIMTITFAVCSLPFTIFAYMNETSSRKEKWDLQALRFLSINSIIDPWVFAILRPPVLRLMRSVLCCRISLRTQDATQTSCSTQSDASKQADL
How it was run: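 IC50 values derive from duplicate-point curves of percent cAMP relative to DMSO, read by HTRF (665/620 nm) against a cAMP calibrator. Compounds (30 μM to 0.01 nM ranges) were given 45 min at room temperature before 30 min with 75 nM PGE2, in EP2-only SF295 cells with 2 mM IBMX.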

PTGER2 (EP2) = molecular target: T2, PTGER2 (EP2) (Homo sapiens, UniProt P43116); assay: hEP2 b-Arrestin Assay (PathHunter HEK 293 PTGER2 b-arrestin cells, PGE2 5 μM); conditions: antagonistic activity, beta-arrestin assay, HEK 293 PTGER2 cells, PGE2 5 μM (EC80); read-out: hEP2 b-arr IC50
T2 construct: host or cells: HEK 293 (PathHunter, stably transfected)
T2 sequence (P43116 whole entry): as above
How it was run: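 PathHunter enzyme-fragment complementation in HEK 293 cells: compounds (10 μM-2 nM or 1 μM-0.2 nM) pre-incubated 15 min at 37 °C, then 5 μM PGE2 (EC80) for 120 min at 37 °C. Chemiluminescence read after 1 h detection; IC50 from duplicate dose-response fits, means of repeats.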

PTGER4 (EP4) = molecular target: T3, PTGER4 (EP4) (Homo sapiens, UniProt P35408); assay: hEP4 b-Arrestin Assay (PathHunter HEK 293 PTGER4 b-arrestin cells, PGE2 20 nM); conditions: antagonistic activity, beta-arrestin assay, HEK 293 PTGER4 cells, PGE2 20 nM (EC80); read-out: hEP4 b-arr IC50
T3 construct: host or cells: HEK 293 (PathHunter, stably transfected)
T3 sequence (P35408 whole entry): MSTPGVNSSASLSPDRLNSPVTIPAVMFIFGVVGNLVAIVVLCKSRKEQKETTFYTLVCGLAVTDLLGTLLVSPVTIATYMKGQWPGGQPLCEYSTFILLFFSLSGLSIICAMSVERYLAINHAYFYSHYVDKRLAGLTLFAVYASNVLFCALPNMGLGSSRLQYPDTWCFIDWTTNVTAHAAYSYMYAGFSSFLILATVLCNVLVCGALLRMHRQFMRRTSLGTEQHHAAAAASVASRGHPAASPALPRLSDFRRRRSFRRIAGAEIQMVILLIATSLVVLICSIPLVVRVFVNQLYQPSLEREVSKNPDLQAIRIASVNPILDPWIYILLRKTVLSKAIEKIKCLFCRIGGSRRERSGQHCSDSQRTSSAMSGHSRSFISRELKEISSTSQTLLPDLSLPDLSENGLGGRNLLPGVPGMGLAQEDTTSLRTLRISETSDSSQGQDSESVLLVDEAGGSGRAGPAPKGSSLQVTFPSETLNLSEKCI
How it was run: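 PathHunter HEK 293 EP4 b-arrestin enzyme-complementation cells preincubated 15 min at 37° C with compound (10 μM-2 nM or 1 μM-0.2 nM), then stimulated 120 min with 20 nM PGE2 (EC80). Chemiluminescence read; IC50 from duplicate % activity vs DMSO, one-site fit, averaged over repeats.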

EP4 = molecular target: T4, EP4 (Homo sapiens, UniProt P35408); assay: hEP4 cAMP Assay (BT549 breast cancer cells, HTRF cAMP, PGE2 6 nM); conditions: antagonistic activity, PGE2 6 nM (EC80)
T4 construct: BT549 breast cancer cells, express high endogenous EP4 levels and very low EP2 levels; host or cells: BT549 breast cancer cells
T4 sequence (P35408 whole entry): as above
How it was run: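 Antagonism is measured as inhibition of PGE2 (6 nM final, EC80) cAMP accumulation in EP4-expressing BT549 breast cancer cells, after a 45 min room-temperature compound pre-incubation and 30 min agonist step, with 2 mM IBMX present. HTRF ratio gives cAMP relative to DMSO; IC50 fitted, means over repeat runs.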

| Structure (SMILES) | pIC50 (EP2) | pIC50 (PTGER2 (EP2)) | pIC50 (PTGER4 (EP4)) | pIC50 (EP4) |
| --- | --- | --- | --- | --- |
| COc1ccc2ccccc2c1CCNc1cc(-c2ccc(-c3c(O)c(=O)c3=O)cc2)ncn1 [Example 116, 3-Hydroxy-4-(4-{6-[2-(2-methoxy-naphthalen-1-yl)-ethylamino]-pyrimidin-4-yl}-phenyl)-cyclobut-3-ene-1,2-dione] | 7.17 | 7.60 | 5.94 | 6.62 |
| CCOc1cc(-c2cc(NCCc3cccc4cccnc34)ncn2)sc1-c1noc(=O)[nH]1 [Example 140, 3-{3-Ethoxy-5-[6-(2-quinolin-8-yl-ethylamino)-pyrimidin-4-yl]-thiophen-2-yl}-[1,2,4]oxadiazol-5(4H)-one] | 6.85 | 6.92 | 7.82 | 7.77 |
| CCOc1nc(-c2cc(NCCc3c(OC)ccc4ccccc34)ncn2)sc1C(=O)O [Example 147, 4-Ethoxy-2-{6-[2-(2-methoxy-naphthalen-1-yl)-ethylamino]-pyrimidin-4-yl}-thiazole-5-carboxylic Acid] | 8.00 | 8.15 | 7.40 | 7.36 |
| COc1ccc2ccccc2c1CCNc1cc(-c2ccc(-c3cc(O)no3)cc2)ncn1 [Example 134, 5-(4-{6-[2-(2-Methoxy-naphthalen-1-yl)-ethylamino]-pyrimidin-4-yl}-phenyl)-isoxazol-3-ol] | 7.04 | 8.10 | 6.55 | 6.45 |
| CCOc1cc(-c2cc(NCCc3c(OC)ccc4ccccc34)ncn2)sc1-c1noc(=O)[nH]1 [Example 138, 3-(3-Ethoxy-5-{6-[2-(2-methoxy-naphthalen-1-yl)-ethylamino]-pyrimidin-4-yl}-thiophen-2-yl)-[1,2,4]oxadiazol-5(4H)-one] | 8.22 | 8.52 | 8.40 | 8.10 |
| CCOc1cc(-c2cc(NCCc3c(OCC)ccc4c3OCO4)ncn2)sc1C(=O)O [Example 45, 3-Ethoxy-5-{6-[2-(5-ethoxy-benzo[1,3]dioxol-4-yl)-ethylamino]-pyrimidin-4-yl}-thiophene-2-carboxylic acid] | 8.00 | 8.00 | 7.28 | 7.36 |
| CCOc1cc(-c2cc(NCCc3c(OCC)ccc4ccccc34)ncn2)sc1C(=O)O [Example 27, 3-Ethoxy-5-{6-[2-(2-ethoxy-naphthalen-1-yl)-ethylamino]-pyrimidin-4-yl}-thiophene-2-carboxylic acid] | 8.70 | 8.52 | 7.28 | 7.48 |
| Cn1ccc2c(CCNc3cc(-c4ccc(C(=O)O)c(OC5CCC5)c4)ncn3)cccc21 [Example 159, 2-Cyclobutoxy-4-{6-[2-(1-methyl-1H-indol-4-yl)-ethylamino]-pyrimidin-4-yl}-benzoic acid] | 6.96 | 7.36 | 6.06 | 5.98 |
| CCOc1cc(-c2cc(NCCc3ccc(OC)c4ccccc34)ncn2)sc1C(=O)O [Example 59, 3-Ethoxy-5-{6-[2-(4-methoxy-naphthalen-1-yl)-ethylamino]-pyrimidin-4-yl}-thiophene-2-carboxylic acid] | 6.85 | 6.81 | 7.77 | 7.42 |
| CCOc1cc(-c2cc(NCCc3c(C)ccc4c3cnn4C)ncn2)sc1C(=O)O [Example 79, 5-{6-[2-(1,5-Dimethyl-1H-indazol-4-yl)-ethylamino]-pyrimidin-4-yl}-3-ethoxy-thiophene-2-carboxylic acid] | 7.60 | 7.44 | 6.71 | 7.04 |
| CCOc1cc(-c2cc(NCCc3c(OC)ccc4c3CCO4)ncn2)sc1C(=O)O [Example 34, 3-Ethoxy-5-{6-[2-(5-methoxy-2,3-dihydro-benzofuran-4-yl)-ethylamino]-pyrimidin-4-yl}-thiophene-2-carboxylic acid] | 7.19 | 7.41 | 6.94 | 6.82 |
| COc1ccc2c(c1CCNc1cc(-c3cc(C(F)(F)F)c(C(=O)O)s3)ncn1)CCCN2C [Example 154, 5-{6-[2-(6-Methoxy-1-methyl-1,2,3,4-tetrahydro-quinolin-5-yl)-ethylamino]-pyrimidin-4-yl}-3-trifluoromethyl-thiophene-2-carboxylic Acid] | 6.84 | 7.24 | 6.90 | 6.75 |

Results, then the molecule that gave them:

| pIC50 (EP2) | pIC50 (PTGER2 (EP2)) | pIC50 (PTGER4 (EP4)) | pIC50 (EP4) | Structure (SMILES) |
| --- | --- | --- | --- | --- |
| 7.60 | 7.57 | 6.72 | 6.77 | CCOc1cc(-c2cc(NCCc3c(Cl)ccc4cccnc34)ncn2)sc1C(=O)O [Example 15, 5-{6-[2-(7-Chloro-quinolin-8-yl)-ethylamino]-pyrimidin-4-yl}-3-ethoxy-thiophene-2-carboxylic acid] |
| 8.52 | 8.30 | 7.64 | 7.17 | CCOc1cc(-c2cc(NCCc3c(OC)ccc4ccccc34)ncn2)sc1C(=O)NS(N)(=O)=O [Example 135, 3-Ethoxy-5-(6-((2-(2-methoxynaphthalen-1-yl)ethyl)amino)pyrimidin-4-yl)-N-sulfamoylthiophene-2-carboxamide] |
| 7.70 | 8.30 | 7.47 | 7.37 | CCOc1cc(-c2cc(NCCc3c(OC)ccc4ccccc34)ncn2)ccc1-c1noc(=O)[nH]1 [Example 126, 3-(2-Ethoxy-4-{6-[2-(2-methoxy-naphthalen-1-yl)-ethylamino]-pyrimidin-4-yl}-phenyl)-4H-[1,2,4]oxadiazol-5-one] |
| 7.11 | 7.25 | 6.60 | 6.65 | CCOc1cc(-c2cc(NCCc3c(OC)ccc4cccnc34)ncn2)sc1C(=O)O [Example 33, 3-Ethoxy-5-{6-[2-(7-methoxy-quinolin-8-yl)-ethylamino]-pyrimidin-4-yl}-thiophene-2-carboxylic acid] |
| 7.49 | 7.52 | 6.61 | 6.89 | CCOc1cc(-c2cc(NCCc3c(C)ccc4cnccc34)ncn2)sc1C(=O)O [Example 85, 3-Ethoxy-5-{6-[2-(6-methyl-isoquinolin-5-yl)-ethylamino]-pyrimidin-4-yl}-thiophene-2-carboxylic acid] |
| 7.82 | 7.74 | 7.11 | 7.12 | CCOc1cc(-c2cc(NCCc3c(OC)ccc4ncccc34)ncn2)sc1C(=O)O [Example 65, 3-Ethoxy-5-{6-[2-(6-methoxy-quinolin-5-yl)-ethylamino]-pyrimidin-4-yl}-thiophene-2-carboxylic acid] |
| 7.09 | 7.80 | 7.74 | 7.28 | CCOc1cc(-c2cc(NCCc3c(OC)ccc4ncccc34)ncn2)sc1-c1nnn[nH]1 [Example 145, {6-[4-Ethoxy-5-(1H-tetrazol-5-yl)-thiophen-2-yl]-pyrimidin-4-yl}-[2-(6-methoxy-quinolin-5-yl)-ethyl]-amine] |
| 7.10 | 7.62 | 6.18 | 6.60 | CCOc1cc(-c2cc(NCCc3c(OC)ccc4ccccc34)ncn2)ccc1CC(=O)O [Example 160, (2-Ethoxy-4-{6-[2-(2-methoxy-naphthalen-1-yl)-ethylamino]-pyrimidin-4-yl}-phenyl)-acetic acid] |
| 7.82 | 8.30 | 8.22 | 7.28 | CCOc1nc(-c2cc(NCCc3c(OC)ccc4ccccc34)ncn2)sc1-c1noc(=O)[nH]1 [Example 149, 3-(4-Ethoxy-2-{6-[2-(2-methoxy-naphthalen-1-yl)-ethylamino]-pyrimidin-4-yl}-thiazol-5-yl)-[1,2,4]oxadiazol-5(4H)-one] |
| 7.06 | 7.80 | 7.12 | 6.69 | CCOc1cc(-c2cc(NCCc3c(OC)ccc4ccccc34)ncn2)ccc1OCCC(=O)O [Example 120, 3-(2-Ethoxy-4-{6-[2-(2-methoxy-naphthalen-1-yl)-ethylamino]-pyrimidin-4-yl}-phenoxy)-propionic acid] |
| 7.05 | 7.51 | 7.68 | 6.98 | CCOc1cc(-c2cc(NCCc3cccc4cc[nH]c34)ncn2)sc1-c1noc(=O)[nH]1 [Example 143, 3-(3-Ethoxy-5-{6-[2-(1H-indol-7-yl)-ethylamino]-pyrimidin-4-yl}-thiophen-2-yl)-[1,2,4]oxadiazol-5(4H)-one] |
| 7.57 | 7.70 | 6.58 | 6.26 | CCc1nc(-c2cc(NCCc3c(OC)ccc4ccccc34)ncn2)sc1C(=O)O [Example 148, 4-Ethyl-2-{6-[2-(2-methoxy-naphthalen-1-yl)-ethylamino]-pyrimidin-4-yl}-thiazole-5-carboxylic Acid] |
